Assays:
[1] = Cisplatin levels in samples from mice treated by inhalation or intravenous injection (HPLC); type: in vivo, BALB/c mice; settings: for Mean cisplatin concentration, Kidney / Mean cisplatin concentration, Liver / Mean cisplatin concentration, Lung lavages / Mean cisplatin concentration, Lungs / Mean cisplatin concentration, Serum / Mean cisplatin concentration, Spleen: 5 minutes after dosing
Description: Mice were treated with the appropriate drug formulation either by intravenous injection of 0.2 ml of the appropriate drug formulation or PBS pH 7.4/saline (controls) or by inhalation with the appropriate drug formulation or saline (controls) using the Buxco® nebulisation system. 0.5 ml of the appropriate formulation or saline was added to the nebuliser which was attached to a Volumatic™ Spacer (Allen and Hanbury, Uxbridge, Middlesex). After 1.5 mins of nebulisation, the nebuliser was switched off, and the mice were exposed to the resulting aerosol for a further 5 minutes. […] Blood was taken by cardiac puncture and allowed to clot by storing for up to 12 hours at 4° C. Serum was separated from clotted blood sample by centrifuging at 13,000 rpm at 4° C., and transferred to a clean eppendorf tube. The lungs of the mouse were inflated by introducing two samples of 0.8 ml PBS pH 7.4 via the trachea and the resulting lung lavages were transferred to a clean eppendorf tube. Various organs were removed from the mouse and stored in 1.5 ml microfuge tubes. All the samples were stored at −20° C. until cisplatin levels within the samples could be determined using an HPLC assay.

B16 F0 cells [2] = assay: In vivo lung cancer efficacy study, organ weights; design: species or system BALB/c mice; settings: sacrificed day 14; for Lung weight: Table 9
Description: BALB/c mice (n=8/treatment) were injected intravenously on day 0 with 1-5×10^5 B16 F0 cells which form metastatic lung and liver tumours in mice (Nakurmura et al., 2002). On day 7 mice were treated either by intravenous injection of 0.2 ml of the appropriate drug formulation or PBS pH 7.4/saline (controls) or by inhalation with the appropriate drug formulation or saline using the Buxco® nebulisation system. 0.5 ml of the appropriate formulation or saline was added to the nebuliser which was attached to a Volumatic™ Spacer (Allen and Hanbury, Uxbridge, Middlesex). After 1.5 mins of nebulisation the nebuliser was switched off and the mice were exposed to the resulting aerosol for a further 5 minutes. Mice were sacrificed on day 14, body weight and the weight of the spleen, liver, lungs and kidney assessed. Lung weight was taken as an indirect measure of tumour burden. In some cases mice were dosed on days 4, 7, 9 and 11. Tumours were easily visible as black areas on the surface of the lungs and liver.

B16-F0 cells [3] = assay: Tumour development / liver metastases, organ weight and histology on day 21; type: in vivo, BALB/c male mice
Description: (§1) A number of studies have been completed where mice were treated on day 7 (post-tumour induction) with different cisplatin formulations by inhalation and the effect on subsequent tumour burdens, based on organ weight or direct assessment of the number and size distribution of tumours, was assessed 14 days later. The lungs, liver and spleen were cut into longitudinal slices and the kidney bisected and placed in a tissue cassette. After routine processing in paraffin wax, […] sections were mounted on a glass slide, dewaxed in 100% xylene and serially rehydrated in graded ethanol to water. Sections were then stained with haematoxylin and eosin and examined by light microscopy. For each organ the number and size of tiny (unmeasurable), small, medium and large tumours was determined counted in one H&E section. The size of the largest tumour deposit was also noted. The dimensions used to characterise tumours was small (0.5 to 1.4 mm), medium (1.5 to 2.9 mm), or large (>3 mm largest dimension). The percentage of tiny tumours was calculated using the total number of tumours present in the section.

B16-F0 cells [4] = assay: as above; type: in vivo, C57BL/6 male mice; settings: Table 12 C57BL/6 male
Description: as §1

Leishmania donovani = assay: In vivo efficacy study using Leishmania donovani; design: species or system BALB/c mice; settings: iv 0.2 ml (0.5 mg/ml cisplatin) on day 7 post-infection; burdens seven days later
Description: BALB/c mice were infected by intravenous injection (tail vein, no anaesthetic) with 1-2×10^7 L. donovani amastigotes (Carter et al., 1988). The day of parasite administration to the mice was designated day 0 of the experiment. On day 7 post-infection mice were treated by intravenous injection with 0.2 ml of the appropriate formulation by intravenous injection, without anaesthetic (n=4/treatment). On day 14 impression smears of the spleen and liver, and a smear of bone marrow, were made on to an individual glass microscope slide for each mouse at sacrifice. The slides were fixed in methanol for 30 secs, stained in 10% aqueous Giemsa stain (BDH, VWR International Ltd., Poole, UK) for 20 minutes, and then allowed to air dry. The number of parasites present/1000 host nuclei for the spleen, liver and bone marrow for each sample was determined at ×1000 magnification. The LDU was calculated by multiplying the number of parasites present/1000 host nuclei by the organ weight (gms) for the spleen and liver.

B16 F0 cells [5] = assay: In vivo lung cancer efficacy study, organ weights; settings: Table 8; BALB/c female mice; inhalation day 7; Free drug (1 mg/ml), Processed cisplatin-NIV (0.5 mg/ml); sacrificed day 23
[6] = room temperature; cited from earlier work
[7] = after intravenous administration; cited from earlier work
[8] = Table 3, inhalation 6.5 minutes, 0.5 ml of 0.5 mg/ml
[9] = Table 4, inhalation 6.5 minutes, 0.5 ml of 0.5 mg/ml
[10] = Table 5, 0.5 mg/ml inhalation 6.5 mins on day 7
[11] = Table 5, 4.44 mg/kg iv (0.2 ml of 0.5 mg/ml) on day 7
[12] = Table 6 Expt 1, inhalation on days 4, 7, 9 and 11, cisplatin solution 0.5 mg/ml, processed cisplatin-NIV as prepared
[13] = Table 6 Expt 2, inhalation day 7 only, 0.1 mg/ml
[14] = Table 10, inhalation day 7, cisplatin solution 1 mg/ml, cisplatin-NIV 0.5 mg/ml
[15] = Table 11, inhalation day 7, cisplatin solution 1 mg/ml, cisplatin-NIV 0.1 mg/ml
[16] = Table 11, solution 1 mg/ml, NIV 0.1 mg/ml
[17] = Table 11, solution 1 mg/ml, NIV 0.1 mg/ml, large >3 mm
[18] = Table 11, solution 1 mg/ml, NIV 0.1 mg/ml, medium 1.5 to 2.9 mm
[19] = Table 11, solution 1 mg/ml, NIV 0.1 mg/ml, small 0.5 to 1.4 mm
[20] = Table 12 BALB/c male, inhalation day 7, cisplatin solution 1 mg/ml, cisplatin-NIV 0.5 mg/ml
[21] = Table 12 BALB/c male, solution 1 mg/ml, NIV 0.5 mg/ml
[22] = inhalation day 7, cisplatin solution 1 mg/ml, cisplatin-NIV 0.5 mg/ml
[23] = solution 1 mg/ml, NIV 0.5 mg/ml

Detection of cisplatin by conventional HPLC analysis ([1]; 15 minutes after dosing): not possible to detect
Mean cisplatin concentration, Kidney [1, 8]: 6.81 ± 2.53 μg/ml/g tissue
Mean cisplatin concentration, Liver [1, 8]: 0.037 ± 0.04 μg/ml/g tissue
Mean cisplatin concentration, Lung lavages [1, 8]: 0.004 ± 0.002 µg/mL
Mean cisplatin concentration, Lungs [1, 8]: 0 ± 0 μg/ml/g tissue
Mean cisplatin concentration, Serum [1, 8]: 0.268 ± 0.1 µg/mL
Mean cisplatin concentration, Spleen [1, 8]: 0.018 ± 0.01 μg/ml/g tissue
Mean cisplatin concentration, Kidney ([1]; Table 3, iv 0.2 ml, 0.5 mg/ml): 0.951 ± 0.35 μg/ml/g tissue
Mean cisplatin concentration, Liver ([1]; Table 3, iv 0.2 ml, 0.5 mg/ml): 0.19 ± 0.13 μg/ml/g tissue
Mean cisplatin concentration, Lung lavages ([1]; Table 3, iv 0.2 ml, 0.5 mg/ml): 0.13 ± 0.07 µg/mL
Mean cisplatin concentration, Lungs ([1]; Table 3, iv 0.2 ml, 0.5 mg/ml): 0 ± 0 μg/ml/g tissue
Mean cisplatin concentration, Serum ([1]; Table 3, iv 0.2 ml, 0.5 mg/ml): 0.296 ± 0.13 µg/mL
Mean cisplatin concentration, Spleen ([1]; Table 3, iv 0.2 ml, 0.5 mg/ml): 0.065 ± 0.02 μg/ml/g tissue
Mean cisplatin concentration, Kidney [1, 9]: 0.55 ± 0.48 μg/ml/g tissue
Mean cisplatin concentration, Liver [1, 9]: 0.032 ± 0.02 μg/ml/g tissue
Mean cisplatin concentration, Lung lavages [1, 9]: 0.095 ± 0.06 µg/mL
Mean cisplatin concentration, Lungs [1, 9]: 0.032 ± 0.15 μg/ml/g tissue
Mean cisplatin concentration, Serum [1, 9]: 0 ± 0 µg/mL
Mean cisplatin concentration, Spleen [1, 9]: 0.346 ± 0.19 μg/ml/g tissue
Mean cisplatin concentration, Kidney ([1]; Table 4, iv 0.2 ml, 0.5 mg/ml): 0.55 ± 0.48 μg/ml/g tissue
Mean cisplatin concentration, Liver ([1]; Table 4, iv 0.2 ml, 0.5 mg/ml): 0.032 ± 0.02 μg/ml/g tissue
Mean cisplatin concentration, Lung lavages ([1]; Table 4, iv 0.2 ml, 0.5 mg/ml): 0.095 ± 0.06 µg/mL
Mean cisplatin concentration, Lungs ([1]; Table 4, iv 0.2 ml, 0.5 mg/ml): 0.032 ± 0.015 μg/ml/g tissue
Mean cisplatin concentration, Serum ([1]; Table 4, iv 0.2 ml, 0.5 mg/ml): 0.207 ± 0.02 µg/mL
Mean cisplatin concentration, Spleen ([1]; Table 4, iv 0.2 ml, 0.5 mg/ml): 0.346 ± 0.10 μg/ml/g tissue
SMILES: [NH2][Pt]([NH2])([Cl])[Cl] [Cisplatin solution, cisplatin]
Mean organ weight, Liver (B16 F0 cells [2]; [10]): 1.47 ± 0.05 g
Mean organ weight, Lungs (B16 F0 cells [2]; [10]): 0.22 ± 0.01 g
Mean organ weight, Liver (B16 F0 cells [2]; [11]): 1.44 ± 0.16 g
Mean organ weight, Lungs (B16 F0 cells [2]; [11]): 0.42 ± 0.03 g
Mean organ weight, Liver (B16 F0 cells [2]; [12]): 1.19 ± 0.07 g
Mean organ weight, Lungs (B16 F0 cells [2]; [12]): 0.21 ± 0.01 g
Mean organ weight, Liver (B16 F0 cells [2]; [13]): 1.30 ± 0.03 g
Mean organ weight, Lungs (B16 F0 cells [2]; [13]): 0.21 ± 0.01 g
Lung weight (B16 F0 cells [2]; Female mice, inhalation day 7, 1 mg/ml): 0.19 ± 0.01
Lung weight (B16 F0 cells [2]; Male mice, inhalation day 7, 0.5 mg/ml): 0.23 ± 0.02
% animals with visible metastases, Liver (B16-F0 cells [3]; [14]): (100%)
% animals with visible metastases, Lung (B16-F0 cells [3]; [14]): (100%)
Mean weight, Liver (B16-F0 cells [3]; [14]): 1.53 ± 0.03 g
Mean weight, Lung (B16-F0 cells [3]; [14]): 0.20 ± 0.01 g
Liver Weight (B16-F0 cells [3]; [15]): 1.65 ± 0.10
Lungs Histology, percentage of tiny tumours (B16-F0 cells [3]; [15]): Tiny 60%
Lungs Weight (B16-F0 cells [3]; [15]): 0.22 ± 0.01
Liver Histology, D largest tumour mass, breadth (B16-F0 cells [3]; [16]): 1.6 ± 0.43
Liver Histology, D largest tumour mass, length (B16-F0 cells [3]; [16]): D 2.38
Lungs Histology, D largest tumour mass, breadth (B16-F0 cells [3]; [16]): 1.19 ± 0.23
Lungs Histology, D largest tumour mass, length (B16-F0 cells [3]; [16]): D 1.4 ± 0.37 ×
Liver Histology, number of large tumours (L) (B16-F0 cells [3]; [17]): L 3.8 ± 2.15
Lungs Histology, number of large tumours (L) (B16-F0 cells [3]; [17]): L 0.40 ± 0.24
Liver Histology, number of medium tumours (M) (B16-F0 cells [3]; [18]): M 2.2 ± 1.56
Lungs Histology, number of medium tumours (M) (B16-F0 cells [3]; [18]): M 1.0 ± 0.6
Liver Histology, number of small tumours (S) (B16-F0 cells [3]; [19]): S 0.4 ± 0.24
Lungs Histology, number of small tumours (S) (B16-F0 cells [3]; [19]): S 2.5 ± 0.43
Liver Weight (B16-F0 cells [3]; [20]): 1.74 ± 0.05
Lungs Weight (B16-F0 cells [3]; [20]): 0.22 ± 0.02
Liver Tumours, D largest tumour mass, breadth (B16-F0 cells [3]; [21]): 2.3 ± 0.70
Liver Tumours, D largest tumour mass, length (B16-F0 cells [3]; [21]): D 2.63 ± 0.71 ×
Liver Tumours, number large (L) (B16-F0 cells [3]; [21]): L 2.5 ± 1.50
Liver Tumours, number medium (M) (B16-F0 cells [3]; [21]): M 2.0 ± 1.41
Liver Tumours, number small (S) (B16-F0 cells [3]; [21]): S 3.5 ± 1.32
Liver Tumours, percentage of tiny tumours (B16-F0 cells [3]; [21]): Tiny 0%
Lungs Tumours, D largest tumour mass, breadth (B16-F0 cells [3]; [21]): 1.08 ± 0.15
Lungs Tumours, D largest tumour mass, length (B16-F0 cells [3]; [21]): D 1.45 ± 0.13 ×
Lungs Tumours, number large (L) (B16-F0 cells [3]; [21]): L 0
Lungs Tumours, number medium (M) (B16-F0 cells [3]; [21]): M 0.5 ± 0.29
Lungs Tumours, number small (S) (B16-F0 cells [3]; [21]): S 7.75 ± 1.11
Lungs Tumours, percentage of tiny tumours (B16-F0 cells [3]; [21]): Tiny 60%
Liver Weight (B16-F0 cells [4]; [22]): 1.76 ± 0.16
Lungs Weight (B16-F0 cells [4]; [22]): 0.25 ± 0.03
Liver Tumours, D largest tumour mass, breadth (B16-F0 cells [4]; [23]): 4.44 ± 0.56
Liver Tumours, D largest tumour mass, length (B16-F0 cells [4]; [23]): D 5.64 ± 0.88 ×
Liver Tumours, number large (L) (B16-F0 cells [4]; [23]): L 6.4 ± 2.95
Liver Tumours, number medium (M) (B16-F0 cells [4]; [23]): M 2.8 ± 1.01
Liver Tumours, number small (S) (B16-F0 cells [4]; [23]): S 0.20 ± 0.20
Lungs Tumours, D largest tumour mass, breadth (B16-F0 cells [4]; [23]): 0.7 ± 0.20
Lungs Tumours, D largest tumour mass, length (B16-F0 cells [4]; [23]): D 1.35 ± 0.35 ×
Lungs Tumours, number large (L) (B16-F0 cells [4]; [23]): L 0
Lungs Tumours, number medium (M) (B16-F0 cells [4]; [23]): M 1.0 ± 0.6
Lungs Tumours, number small (S) (B16-F0 cells [4]; [23]): S 1.2 ± 0.73
Lungs Tumours, percentage of tiny tumours (B16-F0 cells [4]; [23]): Tiny 0%
Mean number of parasites ± SE (L. donovani liver parasite burdens) (Leishmania donovani): 2142 ± 249
Lung weight (B16 F0 cells [5]): 0.33 ± 0.02
Maximum aqueous solubility [6]: approximately 1 mg/ml
Share of the dose that reaches the lungs [7]: 0.1%

Source: patent US20090324743A1, “PULMONARY DRUG DELIVERY” (UNIVERSITY OF STRATHCLYDE, priority 2008, published 2009)
